# Columns and labels:
# MCT1 [1] = settings: cited from earlier work
# GAPDH = GAPDH (Homo sapiens, UniProt P04406); settings: covalent bond with active-site cysteine; cited from earlier work
# MCT1 [2] = target: T1, MCT1 (Homo sapiens, UniProt P53985); assay: 14C-3-BrPA uptake assay, wild type KBM7 cells; format: cell-based; settings: wild type KBM7 in HBSS, up to 20 minutes, unlabeled competitor
# T1 construct: endogenous in cells; host or cells: wild type KBM7 cells (near-haploid human cell line)
# T1 sequence (P53985 1-500): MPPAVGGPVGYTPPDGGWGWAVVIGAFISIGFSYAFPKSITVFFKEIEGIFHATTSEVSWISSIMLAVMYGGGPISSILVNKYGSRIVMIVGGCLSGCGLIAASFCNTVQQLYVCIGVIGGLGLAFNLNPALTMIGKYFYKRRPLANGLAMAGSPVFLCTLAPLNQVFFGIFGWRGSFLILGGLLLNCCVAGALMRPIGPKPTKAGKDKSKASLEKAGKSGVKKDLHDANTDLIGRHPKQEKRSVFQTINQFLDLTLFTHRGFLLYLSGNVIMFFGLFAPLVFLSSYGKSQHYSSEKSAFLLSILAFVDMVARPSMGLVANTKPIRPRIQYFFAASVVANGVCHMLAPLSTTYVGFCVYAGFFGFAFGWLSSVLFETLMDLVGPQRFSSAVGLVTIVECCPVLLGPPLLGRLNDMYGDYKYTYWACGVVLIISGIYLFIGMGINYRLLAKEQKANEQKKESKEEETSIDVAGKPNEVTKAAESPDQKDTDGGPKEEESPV
# T1 sequence (P35613 140-385 partner limits assumed): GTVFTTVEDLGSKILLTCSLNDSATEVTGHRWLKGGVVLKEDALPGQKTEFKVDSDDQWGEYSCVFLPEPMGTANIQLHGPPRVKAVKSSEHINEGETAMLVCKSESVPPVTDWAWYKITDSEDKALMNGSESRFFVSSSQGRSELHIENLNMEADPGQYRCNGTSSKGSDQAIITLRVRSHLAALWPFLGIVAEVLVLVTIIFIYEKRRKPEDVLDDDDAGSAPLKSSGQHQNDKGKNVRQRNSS
# Method: Wild type KBM7 or MCT1-null cells were seeded in HBSS and exposed for up to 20 minutes to 100 μM ^14C-labeled 3-BrPA (6.8 mCi/mmole) (Moravek) with or without competitor molecules like 3-BrPA, Pyruvate, L-Lactate and D-Lactate. Cells were washed with cold HBSS, lysed in a NaOH buffer, and uptake measured using a liquid scintillation counter.
# Sequence of GAPDH (P04406 whole entry, species assumed): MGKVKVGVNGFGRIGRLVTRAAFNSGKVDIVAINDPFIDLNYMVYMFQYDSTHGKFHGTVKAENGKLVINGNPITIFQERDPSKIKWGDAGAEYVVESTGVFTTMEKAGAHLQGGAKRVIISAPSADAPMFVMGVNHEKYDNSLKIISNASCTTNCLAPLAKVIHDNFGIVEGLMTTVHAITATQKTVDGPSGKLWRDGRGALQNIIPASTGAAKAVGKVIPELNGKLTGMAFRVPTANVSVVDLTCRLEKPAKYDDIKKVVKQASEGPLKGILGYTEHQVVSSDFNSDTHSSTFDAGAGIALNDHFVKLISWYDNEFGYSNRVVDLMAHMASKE
structure (smiles),measurement,setting,value
"N#C/C(=C\c1ccc(O)cc1)C(=O)O [α-cyano-4-hydroxycinnamate (CHC), α-cyano-4-hydroxycinnamate]",antitumor effect,MCT1 [1]; alone or in combination with radiotherapy in mice,potent antitumor affects
same,toxicity,MCT1 [1]; mice,without exerting overt toxicity
CC(C)C1CC[C@@]2(CO2)[C@H]2C(=O)OCC(C(=O)O)=C[C@H]12 (some centres unmarked) [koningic acid],inhibition of GAPDH,GAPDH,potently inhibit
CC(O)C(=O)O (centres unmarked) [lactate],competition with the uptake of radiolabeled 3-BrPA,MCT1 [2],to a lesser extent
CC1=C[C@@]23C(COC(=O)C24CO4)C(C(=O)O)=CC3[C@@H]1C (some centres unmarked) [Pentalenolactone],inhibition of GAPDH,GAPDH,potently inhibit

# Reference: patent publication US20140142180A1, “METHODS OF TREATING TUMORS HAVING ELEVATED MCT1 EXPRESSION” (Whitehead Institute for Biomedical Research, priority 2012, published 2014)
